According to PMC11863921 (BMC Biology, 2025):
“Also recorded” adds a separate entry of the source.

Key:
[1] = tested on: ovarian fragments of A. cf. solaris; assay: In vitro spawning assay with ovarian fragments of A. cf. solaris; conditions: 1 h; for gonadotropic activity (shedding of mature eggs / spawning): 2 × 10^−10–2 × 10^−6 M, four separate assays
Source text: Adult A. cf. solaris were collected from the Great Barrier Reef by Pacific Marine Group divers associated with the Great Barrier Reef Marine Park Authority (GBRMPA) before being transported to the University of the Sunshine Coast aquarium facility. Animals were briefly maintained in a re-circulating protein-skimmed and aerated saltwater system of approximately 1500 L. The animals used were approximately 25–55 cm in diameter and kept unfed for the duration of the experiment. The gender and ovarian maturation stage was determined by using a minor gonad tissue biopsy technique and, thereafter, animals were individually segregated in a flowthrough aerated tank filled with approximately 55 L of filtered seawater for a minimum of 24 h to recover and acclimatize.
AsoRGP1 and AsoRGP2 were synthesized as described previously. In addition, a modified form of AsoRGP2 was synthesized in which the N-terminal residue of the A-chain (glutamine, Q) was substituted with pyroglutamate (pQ), recognizing the possibility of this potential post-translational modification. […] In vitro spawning assays using ovarian fragments were performed following procedures described previously. In brief, the ovaries were excised and cut using scissors into small fragments containing only a few lobes. The ovarian fragments were then incubated in artificial seawater containing RGP-type peptides at a range of concentrations (2 × 10^−10–2 × 10^−6 M) for 1 h. As a control experiment, ovarian fragments were incubated in artificial seawater alone. The samples were examined to determine whether or not in vitro spawning had occurred and were scored as follows: (+ + +) spawning occurred and most oocytes had matured; (+ +) about 50% of oocytes had matured, ( +) a few oocytes had matured and ( −): no spawning occurred. […] Means ± standard error of mean (SEM) were determined from four separate assays using ovaries from four different animals.

AsolLGR4(short) = assay: CRE reporter gene assay in HEK-293T cells transfected with AsolLGR4(short); format: cell-based, A. cf. solaris; conditions: HEK-293T cells with AsolLGR4(short), any concentration tested
Source text: (§1) The coding sequences for AsolRXFP/LGR3, AsolLGR4(short), and AsolLGR4(long) lacking a native N-terminal signal peptide were optimized for mammalian codon usage, but with the addition of a 5′ nucleotide sequence encoding an N-terminal bovine prolactin precursor signal peptide followed by a FLAG tag. The coding sequences for each construct are presented in Additional file 16: Dataset S9. Following the addition of a Kozak sequence (GCCACC) before the start codon of each coding sequence, the receptor cDNAs were synthesized in pUC57 vectors (GenScript, Hong Kong) with BamHI and XhoI restriction sites and Gateway‐compatible attB5 and attB2 sites at both ends to also allow recloning into pcDNA3.1/Zeo ( +) or Gateway (Invitrogen) vectors. pUC57 vectors were first digested with BamHI and XhoI restriction enzymes together with pcDNA3.1/Zeo ( +) followed by agarose gel purification of the digested DNA. Receptor constructs were ligated into the cut pcDNA3.1/Zeo ( +) vector to produce pcDNA-AsolRXFP/LGR3, pcDNA − AsolLGR4(short), and pcDNA − AsolLGR4(long). The sequences were confirmed by using Sanger sequencing on both strands. The AsolRXFP/LGR3 sequence was cloned into a lentiviral vector under the control of the constitutive human Ef1α promoter using Gateway technology (Invitrogen), according to the manufacturer’s instructions. […]

AsolLGR4(long) = assay: CRE reporter gene assay in HEK-293T cells transfected with AsolLGR4(long); format: cell-based, A. cf. solaris; conditions: HEK-293T cells with AsolLGR4(long), any concentration tested
Source text: as §1

| Substance | gonadotropic activity (shedding of mature eggs / spawning) [1] | cAMP activity / CRE reporter gene activation (AsolLGR4(short)) | cAMP activity / CRE reporter gene activation (AsolLGR4(long)) | relative potency in inducing shedding of mature eggs / spawning ([1]; semi-quantitative, compared with RGP1 or unmodified RGP2) |
| --- | --- | --- | --- | --- |
| Acanthaster cf. solaris Relaxin-like gonad-stimulating peptide 1 [AsolRGP1] | exhibited gonadotropic activity; also recorded: dose-dependent induction of spawning | no significant increase in cAMP levels; also recorded: Neither AsolRGP1 nor AsolRGP2 induced CRE reporter gene activation | no significant increase in cAMP levels; also recorded: Neither AsolRGP1 nor AsolRGP2 induced CRE reporter gene activation | – |
| Acanthaster cf. solaris Relaxin-like gonad-stimulating peptide 2 [AsolRGP2] | exhibited gonadotropic activity; also recorded: dose-dependent induction of spawning | no significant increase in cAMP levels; also recorded: Neither AsolRGP1 nor AsolRGP2 induced CRE reporter gene activation | no significant increase in cAMP levels; also recorded: Neither AsolRGP1 nor AsolRGP2 induced CRE reporter gene activation | slightly less potent than RGP1 |
